Experimental data taken from the NIST ThermoML archive (doi:10.1016/j.jct.2012.03.031).

Assay: molar heat capacity at constant pressure
Details: 101.33 kPa

CCCCc1ccc(C(=O)Oc2ccc(C#N)c(F)c2)cc1 [4-cyano-3-fluorophenyl 4-butylbenzoate]
Details | molar heat capacity at constant pressure [J/K/mol]
4.918 K, Crystal 1, Small (less than 1 g) adiabatic calorimetry | 1.032
5 K, Crystal 1, Vacuum adiabatic calorimetry | 1.08
5 K, Crystal 2, Vacuum adiabatic calorimetry | 1.44
5.052 K, Crystal 2, Small (less than 1 g) adiabatic calorimetry | 1.482
5.07 K, Crystal 1, Small (less than 1 g) adiabatic calorimetry | 1.127
5.575 K, Crystal 1, Small (less than 1 g) adiabatic calorimetry | 1.448
5.722 K, Crystal 2, Small (less than 1 g) adiabatic calorimetry | 2.06
5.747 K, Crystal 1, Small (less than 1 g) adiabatic calorimetry | 1.591
6.284 K, Crystal 1, Small (less than 1 g) adiabatic calorimetry | 2.011
6.538 K, Crystal 2, Small (less than 1 g) adiabatic calorimetry | 2.901
6.573 K, Crystal 1, Small (less than 1 g) adiabatic calorimetry | 2.293
7.108 K, Crystal 1, Small (less than 1 g) adiabatic calorimetry | 2.802
7.413 K, Crystal 2, Small (less than 1 g) adiabatic calorimetry | 3.946
7.456 K, Crystal 1, Small (less than 1 g) adiabatic calorimetry | 3.2
8.006 K, Crystal 1, Small (less than 1 g) adiabatic calorimetry | 3.815
8.284 K, Crystal 2, Small (less than 1 g) adiabatic calorimetry | 5.139
8.384 K, Crystal 1, Small (less than 1 g) adiabatic calorimetry | 4.319
8.948 K, Crystal 1, Small (less than 1 g) adiabatic calorimetry | 5.034
9.21 K, Crystal 2, Small (less than 1 g) adiabatic calorimetry | 6.549
9.353 K, Crystal 1, Small (less than 1 g) adiabatic calorimetry | 5.638
9.931 K, Crystal 1, Small (less than 1 g) adiabatic calorimetry | 6.451
10 K, Crystal 1, Vacuum adiabatic calorimetry | 6.56
10 K, Crystal 2, Vacuum adiabatic calorimetry | 7.87
10.23 K, Crystal 2, Small (less than 1 g) adiabatic calorimetry | 8.254
10.31 K, Crystal 1, Small (less than 1 g) adiabatic calorimetry | 7.064
10.88 K, Crystal 1, Small (less than 1 g) adiabatic calorimetry | 7.93
11.24 K, Crystal 2, Small (less than 1 g) adiabatic calorimetry | 10.07
11.26 K, Crystal 1, Small (less than 1 g) adiabatic calorimetry | 8.608
11.81 K, Crystal 1, Small (less than 1 g) adiabatic calorimetry | 9.492
12.23 K, Crystal 1, Small (less than 1 g) adiabatic calorimetry | 10.25
12.28 K, Crystal 2, Small (less than 1 g) adiabatic calorimetry | 12.04
12.81 K, Crystal 1, Small (less than 1 g) adiabatic calorimetry | 11.22
13.24 K, Crystal 1, Small (less than 1 g) adiabatic calorimetry | 12.07
13.39 K, Crystal 2, Small (less than 1 g) adiabatic calorimetry | 14.28
13.89 K, Crystal 1, Small (less than 1 g) adiabatic calorimetry | 13.26
14.32 K, Crystal 1, Small (less than 1 g) adiabatic calorimetry | 14.11
14.71 K, Crystal 2, Small (less than 1 g) adiabatic calorimetry | 17
15.07 K, Crystal 1, Small (less than 1 g) adiabatic calorimetry | 15.49
15.47 K, Crystal 1, Small (less than 1 g) adiabatic calorimetry | 16.32
16.2 K, Crystal 2, Small (less than 1 g) adiabatic calorimetry | 20.27
16.43 K, Crystal 1, Small (less than 1 g) adiabatic calorimetry | 18.21
16.76 K, Crystal 1, Small (less than 1 g) adiabatic calorimetry | 18.95
17.73 K, Crystal 2, Small (less than 1 g) adiabatic calorimetry | 23.69
18.05 K, Crystal 1, Small (less than 1 g) adiabatic calorimetry | 21.6
18.4 K, Crystal 1, Small (less than 1 g) adiabatic calorimetry | 22.4
19.39 K, Crystal 2, Small (less than 1 g) adiabatic calorimetry | 27.53
19.84 K, Crystal 1, Small (less than 1 g) adiabatic calorimetry | 25.4
20 K, Crystal 1, Vacuum adiabatic calorimetry | 25.75
20 K, Crystal 2, Vacuum adiabatic calorimetry | 28.93
20.07 K, Crystal 1, Small (less than 1 g) adiabatic calorimetry | 25.94
21.11 K, Crystal 2, Small (less than 1 g) adiabatic calorimetry | 31.48
21.53 K, Crystal 1, Small (less than 1 g) adiabatic calorimetry | 29.12
21.58 K, Crystal 1, Small (less than 1 g) adiabatic calorimetry | 29.19
22.83 K, Crystal 2, Small (less than 1 g) adiabatic calorimetry | 35.46
23.05 K, Crystal 1, Small (less than 1 g) adiabatic calorimetry | 32.44
23.28 K, Crystal 1, Small (less than 1 g) adiabatic calorimetry | 32.87
24.53 K, Crystal 2, Small (less than 1 g) adiabatic calorimetry | 39.3
24.67 K, Crystal 1, Small (less than 1 g) adiabatic calorimetry | 35.93
24.93 K, Crystal 1, Small (less than 1 g) adiabatic calorimetry | 36.45
26.2 K, Crystal 2, Small (less than 1 g) adiabatic calorimetry | 43.02
26.34 K, Crystal 1, Small (less than 1 g) adiabatic calorimetry | 39.52
26.69 K, Crystal 1, Small (less than 1 g) adiabatic calorimetry | 40.25
27.89 K, Crystal 2, Small (less than 1 g) adiabatic calorimetry | 47.05
27.96 K, Crystal 1, Small (less than 1 g) adiabatic calorimetry | 43.27
28.5 K, Crystal 1, Small (less than 1 g) adiabatic calorimetry | 44.43
29.49 K, Crystal 1, Small (less than 1 g) adiabatic calorimetry | 46.73
29.58 K, Crystal 2, Small (less than 1 g) adiabatic calorimetry | 50.91
